Drawing on paper PMC3210610, “Studies on Synthesis and Structure-Activity Relationship (SAR) of Derivatives of a New Natural Product from Marine Fungi as Inhibitors of Influenza Virus Neuraminidase” (Marine Drugs, 2011), this text covers IC50 for 1 compound.

The target of assay [1] is neuraminidase (NA) of A/GuangdongSB/01/2009 (H1N1) (Influenza A virus (A/Managua/5248.03/2009(H1N1)), UniProt E0V7D1). To be noted: 0.15 mM 4-MUNANA, MES pH 6.5, 4 mM CaCl2, 37 °C, 1 h preincubation; Figure 2 legend says chemiluminescence assay.
For assay [2], the target named is neuraminidase (NA) of A/Guangdong/05/2009 (H1N1) (Influenza A virus (A/Managua/5248.03/2009(H1N1)), UniProt E0V7D1). To be noted: 0.15 mM 4-MUNANA, MES pH 6.5, 4 mM CaCl2, 37 °C, 1 h preincubation; Figure 2 legend says chemiluminescence assay.

For `C=CCOc1cc(C=O)ccc1O` [compound 15, 3-(allyloxy)-4-hydroxybenzaldehyde], the results for the IC50 in assay [1] and in assay [2] were 27 µM and 25.1 µM, respectively.
